The subject of data set [1] is Staphylococcus aureus, epidemic methicillin-resistant EMRSA-15. It is filed as cell-based. As for the experimental part: (§1) The following strains were used in this study: Escherichia coli, ATCC 25922, Staphylococcus aureus, epidemic methicillin-resistant EMRSA-15, Klebsiella pneumoniae, clinical isolate from St George’s, University of London (SGUL, London, UK), Acinetobacter baumannii, clinical isolate from SGUL, Pseudomonas aeruginosa, PA01 wildtype strain, and Enterococcus faecalis, vancomycin-resistant ATCC 51299.
(§2) The minimal inhibitory concentration (MIC) was determined in a microdilution assay using Mueller–Hinton (MH) or Brain Heart Infusion Broth (BHI) broth following a previously published protocol. Briefly, a twofold serial dilution of the antibiotics and peptides were prepared and added to a bacteria solution, resulting in 2–5 10^5 CFU/mL. The microtiter plates (polypropylene, Corning, Corning, NY, USA) were incubated for 18 h at 37 °C and MICs were taken visually. Based on our experience with proline rich peptides, their low activity in Mueller–Hinton broth, and their strong activity in diluted broth, we decided to also measure the activity of the peptide set in a 1/5 dilution of the broth. MICs in the presence of serum were established using human serum (Zen-Bio, Durham, NC, USA) and heat-inactivated serum (Sigma-Aldrich, St. Louis, MO, USA). A total of 20% (v/v) of each human serum was mixed with bacterial solution and added to predetermined concentrations of antibiotics and peptides, resulting in a final 10% (v/v) concentration of serum and 2–5 × 10^5 bacteria.

A short description of the next data set: pH stability. It is filed as physicochemical. The settings on record: 20 μM, pH 1.2 and 7.5, 24 h, UPLC. As for the experimental part: (§3) Serum stability assays were performed in 100% human serum (Sigma-Aldrich, St. Louis MO, USA, human male AB plasma). Serum was centrifuged to remove lipids and incubated with the peptides at 100 μM for 0, 0.5, 1, 3, 6, and 24 h at 37 °C. Serum proteins were precipitated by adding 3 μL of TFA to 40 μL of peptide – serum sample (final TFA 7%). The remaining supernatant was diluted with 50:50 solvent A/B. The amount of peptide remaining (%) was quantified by UPLC-MS analysis. For pH stability experiments, peptides were incubated at a concentration of 20 μM at pH 1.2 and 7.5 for 24 h, and stability was monitored by UPLC analysis.

For data set [2], the system named is Enterococcus faecalis, vancomycin-resistant ATCC 51299. It is filed as cell-based. How it is done:
as §1, §2

In data set [3] the test system is Pseudomonas aeruginosa, PA01 wildtype strain. It is filed as cell-based. The settings on record: triplicate, modal value. How it is done:
as §1, §2

For data set [4], the system named is Klebsiella pneumoniae, clinical isolate from St George's, University of London. It is filed as cell-based. As for the experimental part: as §1, §2
Data set [5] has as its system Escherichia coli, ATCC 25922. It is filed as cell-based. The settings on record: triplicate, modal value. How it is done: as §1, §2
Data set [6] deals with Acinetobacter baumannii, clinical isolate from SGUL. It is filed as cell-based. The settings on record: triplicate, modal value. How it is done:
as §1, §2

The next data set is described as follows: Serum stability assay. It is filed as in vitro ADME, human. The conditions noted are these: 37 °C, UPLC-MS; for half-life at 100 μM: 100% human serum (Sigma-Aldrich, human male AB plasma), 100 μM peptide, 0-24 h, TFA precipitation, triplicates; for Peptide state after one hour in human serum: 100% human serum, 100 μM, 1 h. As for the experimental part:
as §3

Data set [7] deals with S. enterica serovar Typhimurium LT2. The conditions noted are these: cited from earlier work. The text has this: (§4) Several naturally occurring cyclotide sequences have been proposed to have antimicrobial activity. However, the cyclotides tested in that study were synthetically made and had rather weak activity against a range of common pathogenic bacteria, including Escherichia coli and Staphylococcus aureus, but were only active in low salt media, losing all activity under physiological conditions. A number of other studies have also reported antibacterial activity for some natural cyclotides or synthetic derivatives of them. For example, fractions comprised of cyclotid ...

The test system of a further data set is Staphylococcus aureus. The settings on record: cited from earlier work.
Source text: as §4

A further data set has as its system E. coli. The conditions noted are these: cited from earlier work.
Source text: as §4

The mark [8] stands for this setting: MH, single measurement (asterisk).
[9] abbreviates: 1/5 MH + 10% human serum, triplicate, modal value.
Setting [10] is: 1/5 MH, triplicate, modal value.
[11] abbreviates: 1/5 MH + 10% heat inactivated human serum, triplicate, modal value.
[12] abbreviates: MH + 10% human serum, triplicate, modal value.

Converted amounts (≈) assume the structure as drawn. Like-named read-outs stand apart in the source and are kept apart here. Marks after values point to notes of the source that are not given here. Bridge positions count the residues as written; N and C are the ends. Square brackets hold non-standard residues; d marks the D form. Ends that are not written are not given here. Peptide text beside a SMILES is read from it. βAla = NCCC(=O)O

For the compound `CC[C@H](C)[C@H](NC(=O)CN)C(=O)NCC(=O)N[C@@H](C)C(=O)N[C@H](C(=O)N[C@@H](CC(C)C)C(=O)N[C@@H](CCCCN)C(=O)N[C@H](C(=O)N[C@@H](CC(C)C)C(=O)N[C@H](C(=O)N[C@H](C(=O)NCC(=O)N[C@@H](CC(C)C)C(=O)N1CCC[C@H]1C(=O)N[C@@H](C)C(=O)N[C@@H](CC(C)C)C(=O)N[C@H](C(=O)N[C@@H](CO)C(=O)N[C@@H](Cc1c[nH]c2ccccc12)C(=O)N[C@H](C(=O)N[C@@H](CCCCN)C(=O)N[C@@H](CCCNC(=N)N)C(=O)N[C@@H](CCCCN)C(=O)N[C@@H](CCCNC(=N)N)C(=O)N[C@@H](CCC(N)=O)C(=O)N[C@@H](CCC(N)=O)C(N)=O)[C@@H](C)CC)[C@@H](C)CC)[C@@H](C)O)[C@@H](C)O)C(C)C)C(C)C` [Melittin, reference compound], the minimum inhibitory concentration (MIC) in data set [1] (1/5 MH + 10% heat inactivated human serum, single measurement (asterisk)) is given as 1.4 µM; in data set [1] (1/5 MH + 10% human serum, single measurement (asterisk)) it was 1.4 µM; in data set [1] (1/5 MH, single measurement (asterisk)) it was 0.7 µM (≈ 1.99 µg/mL); in data set [1] (setting [8]), 4 µM (≈ 11.4 µg/mL).

`CC[C@H](C)[C@@H]1NC(=O)[C@H](Cc2c[nH]c3ccccc23)NC(=O)[C@H](CCCNC(=N)N)NC(=O)[C@H](C(C)C)NC(=O)[C@H](CCCNC(=N)N)NC(=O)[C@H](CCCNC(=N)N)NC(=O)[C@H](CCCCN)NC(=O)CCNC(=O)CCNC(=O)[C@@H](N)CSSC[C@@H](C(=O)O)NC(=O)CCNC(=O)CCNC(=O)[C@H](Cc2c[nH]c3ccccc23)NC(=O)[C@H]([C@@H](C)CC)NC1=O` [c-optP7] (H-C[βAla][βAla]KRRVRWIIW[βAla][βAla]C-OH; disulfide 1-15): in the data set “pH stability”, the pH stability result is given as “exceptional stability over 24 h”. Also, the MIC in [2] (1/5 BHI + 10% human serum, triplicate, modal value) was more than 142 µM; in [2] (1/5 BHI, triplicate, modal value) it was 18 µM (≈ 32.4 µg/mL); in data set [2] (BHI, single measurement (asterisk)), >142 * µM; in data set [3] (1/5 MH + 10% human serum) it was 35 µM; in data set [3] (1/5 MH), 9 µM (≈ 16.2 µg/mL); in data set [3] (MH + 10% human serum), more than 142 µM. The minimum inhibitory concentration (MIC) was 142 µM (≈ 256 µg/mL) in [3] (MH, microdilution, 18 h 37 °C, visual); 142 µM in data set [4] (setting [9]); 71 µM (≈ 128 µg/mL) in data set [4] (setting [10]); >142 * µM in [4] (setting [8]); more than 142 µM in data set [1] (setting [11]); more than 142 µM in [1] (setting [9]). Besides, the MIC was 18 µM (≈ 32.4 µg/mL) in [1] (setting [10]); more than 142 µM in data set [1] (setting [12]); 142 µM (≈ 256 µg/mL) in [1] (MH, triplicate, modal value); 35 µM in [5] (1/5 MH + 10% heat inactivated human serum); 18 µM in data set [5] (1/5 MH + 10% human serum); 4 to 9 µM in data set [5] (1/5 MH). For the same compound, the MIC is listed as more than 142 µM in [5] (MH + 10% human serum), 71 µM (≈ 128 µg/mL) in [5] (MH), 71 µM in data set [6] (1/5 MH + 10% human serum) and 4 µM (≈ 7.2 µg/mL) in [6] (1/5 MH). In the data set “Serum stability assay”, this compound yielded a half-life at 100 μM of 9 min. The “Peptide state after one hour in human serum” value in the data set “Serum stability assay” is on record as “fully degraded”.

In the case of KRRVRWIIW-NH2 [optP7], the pH stability result in the data set “pH stability” was “exceptional stability over 24 h”. The MIC in [2] (ATCC 51299, 18 h) is given as 0.8 µM; in [4] (clinical isolate from St George's, University of London, 18 h), 1.5 µM; in data set [1] (setting [11]) it was 6 µM; in data set [1] (setting [9]), 6 µM; in data set [1] (setting [10]) it was 1.5 µM; in [1] (setting [12]) it was 49 µM. This compound also displayed an MIC in data set [1] (MH, triplicate, modal value) of 6 µM. This compound had a half-life at 100 μM in “Serum stability assay” of 13 min. Also, in the data set “Serum stability assay”, the “Peptide state after one hour in human serum” value is “fully degraded”.

Consider cycloviolacin O2, for which the MIC in data set [7] is recorded as approximately 9 µM; in the data set with Staphylococcus aureus, more than 50 µM; in the data set with E. coli, 2 µM.

Broadly, the MIC is the lowest concentration found to suppress growth. What is called half-life is the time in which the quantity being followed falls by half. Read a high half-life as slow loss.

The values above are taken from article PMC8228819, “Comparison of a Short Linear Antimicrobial Peptide with Its Disulfide-Cyclized and Cyclotide-Grafted Variants against Clinically Relevant Pathogens” (Microorganisms, 2021).
